28 compounds from patent US10988477B2 (Merck Patent GmbH, priority 2018, dated 2021) can be followed below.

The target of assay [1] is intracellular GCN2 (phosphorylation of the GCN2 substrate eIF2α) (Homo sapiens, UniProt Q9P2K8). The assay can be described thus: GCN2 cellular inhibition assay (AlphaScreen SureFire P-eIF2α Ser51, borrelidin-treated U2OS cells). In kind it is cell-based. Particulars: compounds of Formula II; biomarker assay, phosphorylated eIF2α Ser51 in borrelidin-treated U2OS cells. An outline of the steps: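 Phospho-eIF2α (Ser51) in lysates was quantified by AlphaScreen SureFire after a 1 h, 37 °C treatment of U2OS cells with 10 μM borrelidin and compound at 4-fold dilutions starting from 40 μM final. Inhibition expressed in percent against wells stimulated by borrelidin alone.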

For the next assay, the target named is GCN2 kinase (Homo sapiens, UniProt Q9P2K8). The assay can be described thus: GCN2 enzyme inhibition assay (Transcreener ADP2 fluorescence polarization). Particulars: compounds of Formula II; 280 μM ATP, 4 nM GCN2 kinase. The assay is classed as biochemical. An outline of the steps: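 Human GCN2 (4 nM) preincubated 10 min with compound (0–8 μM) and 200 μM (RS)7 peptide in Tris-HCl pH 7.5, NaCl, MgCl2, DTT. Reaction started with 280 μM ATP, run 1 h at 25 °C. ADP detected by Transcreener fluorescence polarization. IC50 and Ki(app) fitted by tight-binding algorithm.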

Structures can show the parent of a compound that is named as a salt.

GCN2 kinase, sequence (Q9P2K8 whole entry): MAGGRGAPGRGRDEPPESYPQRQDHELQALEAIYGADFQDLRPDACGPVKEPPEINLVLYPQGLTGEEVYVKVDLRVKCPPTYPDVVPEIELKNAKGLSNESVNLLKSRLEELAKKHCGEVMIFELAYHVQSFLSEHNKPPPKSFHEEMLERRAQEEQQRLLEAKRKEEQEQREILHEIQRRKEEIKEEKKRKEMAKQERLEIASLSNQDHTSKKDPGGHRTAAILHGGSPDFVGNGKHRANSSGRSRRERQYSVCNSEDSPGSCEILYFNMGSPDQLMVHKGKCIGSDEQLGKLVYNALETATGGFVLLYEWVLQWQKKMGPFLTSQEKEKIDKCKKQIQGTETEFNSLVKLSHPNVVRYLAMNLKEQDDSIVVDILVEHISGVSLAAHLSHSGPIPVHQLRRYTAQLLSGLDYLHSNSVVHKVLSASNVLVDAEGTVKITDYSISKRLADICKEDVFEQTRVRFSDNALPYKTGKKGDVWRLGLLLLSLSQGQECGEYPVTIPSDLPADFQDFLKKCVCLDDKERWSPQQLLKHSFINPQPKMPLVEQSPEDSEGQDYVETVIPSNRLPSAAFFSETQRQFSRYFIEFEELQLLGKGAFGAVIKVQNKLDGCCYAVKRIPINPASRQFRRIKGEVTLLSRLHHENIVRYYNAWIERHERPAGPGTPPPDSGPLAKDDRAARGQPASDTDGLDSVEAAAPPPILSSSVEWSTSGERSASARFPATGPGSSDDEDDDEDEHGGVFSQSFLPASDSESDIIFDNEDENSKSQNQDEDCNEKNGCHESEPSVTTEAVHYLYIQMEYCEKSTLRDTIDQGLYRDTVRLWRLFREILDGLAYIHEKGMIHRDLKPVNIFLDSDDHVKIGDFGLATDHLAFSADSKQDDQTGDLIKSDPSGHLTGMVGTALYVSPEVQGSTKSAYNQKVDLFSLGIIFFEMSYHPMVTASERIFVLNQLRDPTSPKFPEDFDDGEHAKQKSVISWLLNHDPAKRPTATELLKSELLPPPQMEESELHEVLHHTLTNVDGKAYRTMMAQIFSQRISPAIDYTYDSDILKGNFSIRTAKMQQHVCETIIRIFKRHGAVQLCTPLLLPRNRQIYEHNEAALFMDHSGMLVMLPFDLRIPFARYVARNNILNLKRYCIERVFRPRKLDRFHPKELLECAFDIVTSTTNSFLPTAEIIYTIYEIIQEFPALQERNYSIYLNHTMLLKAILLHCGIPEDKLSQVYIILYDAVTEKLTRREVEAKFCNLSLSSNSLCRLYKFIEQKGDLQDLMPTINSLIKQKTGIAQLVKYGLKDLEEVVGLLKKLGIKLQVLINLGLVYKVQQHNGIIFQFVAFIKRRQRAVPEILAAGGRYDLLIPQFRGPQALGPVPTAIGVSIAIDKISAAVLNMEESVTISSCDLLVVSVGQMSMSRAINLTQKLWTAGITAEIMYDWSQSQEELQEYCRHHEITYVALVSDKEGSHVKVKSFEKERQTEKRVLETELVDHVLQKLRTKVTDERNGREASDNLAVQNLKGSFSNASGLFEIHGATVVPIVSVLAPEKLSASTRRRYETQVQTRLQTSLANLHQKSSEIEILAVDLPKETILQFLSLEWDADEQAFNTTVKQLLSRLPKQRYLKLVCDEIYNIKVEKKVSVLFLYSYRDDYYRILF
intracellular GCN2 (phosphorylation of the GCN2 substrate eIF2α), sequence (Q9P2K8 whole entry): as above

`CC(O)c1ccc2ncc(-c3cc(N4CCO[C@H](CNS(C)(=O)=O)C4)ncn3)n2n1` (stereo partly drawn) [II-338, N-(((2S)-4-(6-(6-(1-Hydroxyethyl)imidazo[1,2-b]pyridazin-3-yl)pyrimidin-4-yl)morpholin-2-yl)methyl)methanesulfonamide trifluoroacetate] displayed an IC50 in assay [1] greater than 5 µM. The compound also returned a Ki at GCN2 kinase of 0.01 to 1 µM.
`FC(F)c1ccc2ncc(-c3cc(N4CCCC(Cn5cncn5)C4)ncn3)n2n1` (centres unmarked) [II-339, 3-(6-(3-((1H-1,2,4-Triazol-1-yl)methyl)piperidin-1-yl)pyrimidin-4-yl)-6-(difluoromethyl)imidazo[1,2-b]pyridazine] registered an IC50 in assay [1] of 0.5 to 5 µM. The compound further had a Ki on GCN2 kinase of 0.01 to 1 µM.
On the same counts, the results for `CCN1CCN(c2cc(-c3cnc4ccc(C(F)F)nn34)ncn2)C(C)C1CNS(C)(=O)=O` (centres unmarked) [II-340, N-((4-(6-(6-(Difluoromethyl)imidazo[1,2-b]pyridazin-3-yl)pyrimidin-4-yl)-1-ethyl-3-methylpiperazin-2-yl)methyl)methanesulfonamide] are less than 0.5 µM and 0.01 to 1 µM.
Compound `CC1C(CO)OCCN1c1cc(-c2cnc3ccc(C(F)F)nn23)ncn1` (centres unmarked) [II-341, (4-(6-(6-(Difluoromethyl)imidazo[1,2-b]pyridazin-3-yl)pyrimidin-4-yl)-3-methylmorpholin-2-yl)methanol] showed an IC50 in assay [1] greater than 5 µM. This compound showed a Ki at GCN2 kinase of 0.01 to 1 µM.
On to `CC1C(CO)OCCN1c1cc(-c2cnc3ccc(C(F)F)nn23)ncn1` (centres unmarked) [II-342, (4-(6-(6-(Difluoromethyl)imidazo[1,2-b]pyridazin-3-yl)pyrimidin-4-yl)-3-methylmorpholin-2-yl)methanol], for which, in assay [1], the IC50 is 0.5 to 5 µM. The Ki at GCN2 kinase was in the range of 0.01 to 1 µM.
`OCC1CN(c2cc(-c3cnc4ccc(C(F)F)nn34)ncn2)CC2(COC2)O1` (centres unmarked) [II-343, (8-(6-(6-(Difluoromethyl)imidazo[1,2-b]pyridazin-3-yl)pyrimidin-4-yl)-2,5-dioxa-8-azaspiro[3.5]nonan-6-yl)methanol] gave an IC50 in assay [1] greater than 5 µM. This compound gave a Ki at GCN2 kinase of 0.01 to 1 µM.
For `NS(=O)(=O)N1CCC2CCN(c3cc(-c4cnc5ccc(C(F)F)nn45)ncn3)C2C1` (centres unmarked) [II-344, 1-(6-(6-(Difluoromethyl)imidazo[1,2-b]pyridazin-3-yl)pyrimidin-4-yl)octahydro-6H-pyrrolo[2,3-c]pyridine-6-sulfonamide] the same measures were less than 0.5 µM and less than 0.01 µM.
On the same counts, the results for `CC1C(CNS(C)(=O)=O)OCCN1c1cc(-c2cnc3ccc(C(F)F)nn23)ncn1` (centres unmarked) [II-345, N-((4-(6-(6-(Difluoromethyl)imidazo[1,2-b]pyridazin-3-yl)pyrimidin-4-yl)-3-methylmorpholin-2-yl)methyl)methanesulfonamide] are less than 0.5 µM and less than 0.01 µM.
Regarding `CC1C(CNS(C)(=O)=O)OCCN1c1cc(-c2cnc3ccc(C(F)F)nn23)ncn1` (centres unmarked) [II-346, N-((4-(6-(6-(Difluoromethyl)imidazo[1,2-b]pyridazin-3-yl)pyrimidin-4-yl)-3-methylmorpholin-2-yl)methyl)methanesulfonamide], the IC50 in assay [1] was greater than 5 µM. This compound also yielded a Ki at GCN2 kinase of 0.01 to 1 µM.
On the same counts, the results for `NS(=O)(=O)NCC1CN(c2cc(-c3cnc4ccc(C(F)F)nn34)ncn2)CCO1` (centres unmarked) [II-347, N-((4-(6-(6-(Difluoromethyl)imidazo[1,2-b]pyridazin-3-yl)pyrimidin-4-yl)morpholin-2-yl)methyl)sulfuric diamide] are less than 0.5 µM and less than 0.01 µM.
In turn, `CN(C)S(=O)(=O)NCC1CCCN(c2cc(-c3cnc4ccc(C(F)F)nn34)ncn2)C1` (centres unmarked) [II-348, 3-((1-(6-(6-(Difluoromethyl)imidazo[1,2-b]pyridazin-3-yl)pyrimidin-4-yl)piperidin-3-yl)methyl)-1,1-dimethylsulfuric Diamide] displayed an IC50 in assay [1] of 0.5 to 5 µM. On GCN2 kinase, the Ki lay in the range of 0.01 to 1 µM.
On the same counts, the results for `CN(C)S(=O)(=O)NCC1CN(c2cc(-c3cnc4ccc(C(F)F)nn34)ncn2)CCO1` (centres unmarked) [II-349, 3-((4-(6-(6-(Difluoromethyl)imidazo[1,2-b]pyridazin-3-yl)pyrimidin-4-yl)morpholin-2-yl)methyl)-1,1-dimethyl sulfuric diamide] are 0.5 to 5 µM and 0.01 to 1 µM.
For `OC1CCN(CCC2CCN(c3cc(-c4cnc5ccc(C(F)F)nn45)ncn3)CC2)C1` (centres unmarked) [II-351, 1-(2-(1-(6-(6-(Difluoromethyl)imidazo[1,2-b]pyridazin-3-yl)pyrimidin-4-yl)piperidin-4-yl)ethyl)pyrrolidin-3-ol] the same measures were greater than 5 µM and 0.01 to 1 µM.
In assay [1], `OC1CCN(C2CCN(c3cc(-c4cnc5ccc(C(F)F)nn45)ncn3)C2)C1` (centres unmarked) [II-352, 1′-(6-(6-(Difluoromethyl)imidazo[1,2-b]pyridazin-3-yl)pyrimidin-4-yl)-[1,3′-bipyrrolidin]-3-ol] yielded an IC50 greater than 5 µM. Also, at GCN2 kinase, the Ki was in the range of 0.01 to 1 µM.
On to `O=C1CN(CC2CCN(c3cc(-c4cnc5ccc(C(F)F)nn45)ncn3)C2)CCN1` (centres unmarked) [II-353, 4-((1-(6-(6-(Difluoromethyl)imidazo[1,2-b]pyridazin-3-yl)pyrimidin-4-yl)pyrrolidin-3-yl)methyl)piperazin-2-one], for which the IC50 in assay [1] was greater than 5 µM. Further, on GCN2 kinase, the Ki lay within 0.01 to 1 µM.
Consider `C[C@@H]1CCCCN1c1cc(-c2cnc3ccc(C(F)F)nn23)ncn1` [II-354, (R)-6-(Difluoromethyl)-3-(6-(2-methylpiperidin-1-yl)pyrimidin-4-yl)imidazo[1,2-b]pyridazine], for which the IC50 in assay [1] was greater than 5 µM. The same compound showed a Ki at GCN2 kinase of 0.01 to 1 µM.
On the same counts, the results for `FC(F)c1ccc2ncc(-c3cc(C4=CCOCC4)ncn3)n2n1` [II-357, 6-(Difluoromethyl)-3-(6-(3,6-dihydro-2H-pyran-4-yl)pyrimidin-4-yl)imidazo[1,2-b]pyridazine] are greater than 5 µM and 0.01 to 1 µM.
On the same counts, the results for `FC(F)c1ccc2ncc(-c3cc(C4CCOCC4)ncn3)n2n1` [II-358, 6-(Difluoromethyl)-3-(6-tetrahydropyran-4-ylpyrimidin-4-yl)imidazo[1,2-b]pyridazine] are greater than 5 µM and 0.01 to 1 µM.
For `OCC1CN(c2cc(-c3cnc4ccc(C(F)F)nn34)ncn2)CC2(CC2)O1` (centres unmarked) [II-359, (7-(6-(6-(Difluoromethyl)imidazo[1,2-b]pyridazin-3-yl)pyrimidin-4-yl)-4-oxa-7-azaspiro[2.5]octan-5-yl)methanol] the same measures were greater than 5 µM and 0.01 to 1 µM.
`CS(=O)(=O)NC1CCCN(c2cc(-c3cnc4ccc(C(F)F)nn34)ncn2)C1` (centres unmarked) [II-362, N-(1-(6-(6-(Difluoromethyl)imidazo[1,2-b]pyridazin-3-yl)pyrimidin-4-yl)piperidin-3-yl)methanesulfonamide] had an IC50 in assay [1] of 0.5 to 5 µM. For the same compound, at GCN2 kinase, the Ki lay in the range of 0.01 to 1 µM.
In assay [1], `CC1CC(C)(O)C(CNS(C)(=O)=O)CN1c1cc(-c2cnc3ccc(C(F)F)nn23)ncn1` (centres unmarked) [II-365, N-((1-(6-(6-(Difluoromethyl)imidazo[1,2-b]pyridazin-3-yl)pyrimidin-4-yl)-4-hydroxy-4,6-dimethylpiperidin-3-yl)methyl)methanesulfonamide] gave a concentration for half-maximal inhibition (IC50) greater than 5 µM. On GCN2 kinase, this compound showed a Ki of 0.01 to 1 µM.
`CC1C(CNS(C)(=O)=O)C(C)(O)CCN1c1cc(-c2cnc3ccc(C(F)F)nn23)ncn1` (centres unmarked) [II-366, N-((1-(6-(6-(Difluoromethyl)imidazo[1,2-b]pyridazin-3-yl)pyrimidin-4-yl)-4-hydroxy-2,4-dimethylpiperidin-3-yl)methyl)methanesulfonamide]: the IC50 in assay [1] is less than 0.5 µM. The Ki on GCN2 kinase is less than 0.01 µM.
`CC1CC(C)(O)C(CNS(C)(=O)=O)CN1c1cc(-c2cnc3ccc(C(F)F)nn23)ncn1` (centres unmarked) [II-367, N-((1-(6-(6-(Difluoromethyl)imidazo[1,2-b]pyridazin-3-yl)pyrimidin-4-yl)-4-hydroxy-4,6-dimethylpiperidin-3-yl)methyl)methanesulfonamide]: the IC50 in assay [1] was in the range of 0.5 to 5 µM. The same compound returned a Ki on GCN2 kinase of 0.01 to 1 µM.
`CC(=O)N1CCN(c2cc(-c3cnc4ccc(C(F)F)nn34)ncn2)C(C)C1` (centres unmarked) [II-368, 1-(4-(6-(6-(Difluoromethyl)imidazo[1,2-b]pyridazin-3-yl)pyrimidin-4-yl)-3-methylpiperazin-1-yl)ethan-1-one]: the IC50 in assay [1] is greater than 5 µM. The Ki at GCN2 kinase was 0.01 to 1 µM.
For `CS(=O)(=O)N1CCC2C(C1)OCCN2c1cc(-c2cnc3ccc(C(F)F)nn23)ncn1` (centres unmarked) [II-369, 1-(6-(6-(Difluoromethyl)imidazo[1,2-b]pyridazin-3-yl)pyrimidin-4-yl)-6-(methylsulfonyl)octahydro-1H-pyrido[3,4-b][1,4]oxazine], the IC50 in assay [1] was greater than 5 µM. On GCN2 kinase, this compound showed a Ki of 0.01 to 1 µM.
For `CS(=N)(=O)CC1CCCN(c2cc(-c3cnc4ccc(C(F)F)nn34)ncn2)C1` (centres unmarked) [II-370, ((1-(6-(6-(Difluoromethyl)imidazo[1,2-b]pyridazin-3-yl)pyrimidin-4-yl)piperidin-3-yl)methyl)(imino)(methyl)-λ^6-sulfanone] the same measures were 0.5 to 5 µM and 0.01 to 1 µM.
On the same counts, the results for `CC1C(CO)CCCN1c1cc(-c2cnc3ccc(C(F)F)nn23)ncn1` (centres unmarked) [II-373, (1-(6-(6-(Difluoromethyl)imidazo[1,2-b]pyridazin-3-yl)pyrimidin-4-yl)-2-methylpiperidin-3-yl)methanol] are 0.5 to 5 µM and less than 0.01 µM.
In turn, `CS(=O)(=O)NCC1CN(c2cc(-c3cnc4ccc(C(F)F)nn34)ncn2)CC2(CC2)O1` (centres unmarked) [II-375, N-((7-(6-(6-(Difluoromethyl)imidazo[1,2-b]pyridazin-3-yl)pyrimidin-4-yl)-4-oxa-7-azaspiro[2.5]octan-5-yl)methyl)methanesulfonamide] registered an IC50 in assay [1] of less than 0.5 µM. This compound gave a Ki at GCN2 kinase of less than 0.01 µM.
